From US11254690B2, “PTEFb inhibiting macrocyclic compounds” (BAYER AKTIENGESELLSCHAFT, priority 2017, dated 2022)
Where two headings read alike, the source gives them in different places.

Assays:
CDK9/CycT1 = molecular target: T1, CDK9/CycT1 (Homo sapiens, UniProt P50750); assay: CDK9/CycT1 high ATP kinase assay (TR-FRET, 2 mM ATP); type: biochemical; settings: for IC50: 2 mM ATP, Method 1b, lower limit for IC50s about 1-2 nM; for Selectivity high ATP CDK9 over high ATP CDK2: IC50 (high ATP CDK2)/IC50 (high ATP CDK9): ratio from Methods 1b and 2b, minimal values for IC50s near the assay limit
T1 construct: Recombinant full-length His-tagged human CDK9 and CycT1; His; purchased Life Technologies PV4131; host or cells: insect cells
T1 sequence (P50750 whole entry): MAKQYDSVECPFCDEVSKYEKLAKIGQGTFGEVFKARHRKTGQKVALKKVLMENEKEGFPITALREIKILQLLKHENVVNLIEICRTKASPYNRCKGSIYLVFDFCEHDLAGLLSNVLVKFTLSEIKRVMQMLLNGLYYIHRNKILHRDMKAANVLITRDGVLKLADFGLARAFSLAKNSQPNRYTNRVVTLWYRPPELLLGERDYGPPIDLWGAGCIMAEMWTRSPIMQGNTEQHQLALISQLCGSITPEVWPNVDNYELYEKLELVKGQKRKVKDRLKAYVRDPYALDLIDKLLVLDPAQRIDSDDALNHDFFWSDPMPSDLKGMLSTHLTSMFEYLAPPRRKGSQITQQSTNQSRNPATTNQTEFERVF
T1 sequence (O60563 whole entry partner): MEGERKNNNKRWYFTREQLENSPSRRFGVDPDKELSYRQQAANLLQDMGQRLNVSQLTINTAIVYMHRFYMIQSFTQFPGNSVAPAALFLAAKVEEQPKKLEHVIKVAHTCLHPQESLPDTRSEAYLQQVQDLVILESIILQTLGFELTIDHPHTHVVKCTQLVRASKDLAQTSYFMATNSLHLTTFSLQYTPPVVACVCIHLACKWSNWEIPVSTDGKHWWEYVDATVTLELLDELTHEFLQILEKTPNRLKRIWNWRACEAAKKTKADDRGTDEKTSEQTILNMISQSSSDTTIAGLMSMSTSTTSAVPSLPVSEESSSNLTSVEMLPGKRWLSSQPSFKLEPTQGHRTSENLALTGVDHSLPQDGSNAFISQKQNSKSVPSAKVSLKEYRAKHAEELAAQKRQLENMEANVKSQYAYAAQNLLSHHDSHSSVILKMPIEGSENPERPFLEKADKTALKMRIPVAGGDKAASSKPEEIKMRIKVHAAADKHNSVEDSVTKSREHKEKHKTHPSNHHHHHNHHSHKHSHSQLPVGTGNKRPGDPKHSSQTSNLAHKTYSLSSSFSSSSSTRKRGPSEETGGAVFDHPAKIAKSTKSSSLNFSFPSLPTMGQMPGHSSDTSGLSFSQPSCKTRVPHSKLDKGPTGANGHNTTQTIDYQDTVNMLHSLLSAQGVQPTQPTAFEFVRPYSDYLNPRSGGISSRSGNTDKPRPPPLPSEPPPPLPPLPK
Method: 1b. CDK9/CycT1 High ATP Kinase Assay
CDK9/CycT1-inhibitory activity of compounds of the present invention at a high ATP concentration after preincubation of enzyme and test compounds was quantified employing the CDK9/CycT1 TR-FRET assay as described in the following paragraphs.
Recombinant full-length His-tagged human CDK9 and CycT1, expressed in insect cells and purified by Ni-NTA affinity chromatography, were purchased from Life Technologies (Cat. No PV4131). As substrate for the kinase reaction biotinylated peptide biotin-Ttds-YISPLKSPYKISEG (C-terminus in amide form) was used which can be purchased e.g. form the company JERINI peptide technologies (Berlin, Germany).
(§1) For the assay 50 nl of a 100 fold concentrated solution of the test compound in DMSO was pipetted into either a black low volume 384 well microtiter plate or a black 1536 well microtiter plate (both Greiner Bio-One, Frickenhausen, Germany), 2 μl of a solution of CDK9/CycT1 in aqueous assay buffer [50 mM Tris/HCl pH 8.0, 10 mM MgCl2, 1.0 mM dithiothreitol, 0.1 mM sodium ortho-vanadate, 0.01% (v/v) Nonidet-P40 (Sigma)] were added and the mixture was incubated for 15 min at 22° C. to allow pre-binding of the test compounds to the enzyme before the start of the kinase reaction. […] The concentration of CDK9/CycT1 was adjusted depending of the activity of the enzyme lot and was chosen appropriate to have the assay in the linear range, typical concentrations were in the range of 0.5 μg/ml. The reaction was stopped by the addition of 3 μl of a solution of TR-FRET detection reagents (0.33 μM streptavidine-XL665 [Cisbio Bioassays, Codolet, France] and 1.67 nM anti-RB(pSer807/pSer811)-antibody from BD Pharmingen [#558389] and 2 nM LANCE EU-W1024 labeled anti-mouse IgG antibody [Perkin-Elmer, product no. AD0077]) in an aqueous EDTA-solution (167 mM EDTA, 0.2% (w/v) bovine serum albumin in 100 mM HEPES pH 7.5).
(§2) The resulting mixture was incubated 1 h at 22° C. to allow the formation of complex between the phosphorylated biotinylated peptide and the detection reagents. Subsequently the amount of phosphorylated substrate was evaluated by measurement of the resonance energy transfer from the Eu-chelate to the streptavidine-XL. Therefore, the fluorescence emissions at 620 nm and 665 nm after excitation at 350 nm was measured in a TR-FRET reader, e.g. a Pherastar (BMG Labtechnologies, Offenburg, Germany) or a Viewlux (Perkin-Elmer). The ratio of the emissions at 665 nm and at […] was taken as the measure for the amount of phosphorylated substrate. The data were normalised (enzyme reaction without inhibitor=0% inhibition, all other assay components but no enzyme=100% inhibition).

CDK2/CycE = molecular target: T2, CDK2/CycE (Homo sapiens, UniProt P24941); assay: CDK2/CycE high ATP kinase assay (TR-FRET, 2 mM ATP); type: biochemical; settings: Method 2b
T2 construct: GST; purchased ProQinase GmbH (Freiburg, Germany); host or cells: insect cells (Sf9)
Method: 2b. CDK2/CycE High ATP Kinase Assay
CDK2/CycE-inhibitory activity of compounds of the present invention at 2 mM adenosine-tri-phosphate (ATP) was quantified employing the CDK2/CycE TR-FRET (TR-FRET=Time Resolved Fluorescence Energy Transfer) assay as described in the following paragraphs.
Recombinant fusion proteins of GST and human CDK2 and of GST and human CycE, expressed in insect cells (Sf9) and purified by Glutathion-Sepharose affinity chromatography, were purchase from ProQinase GmbH (Freiburg, Germany). As substrate for the kinase reaction biotinylated peptide biotin-Ttds-YISPLKSPYKISEG (C-terminus in amid form) was used which can be purchased e.g. form the company JERINI peptide technologies (Berlin, Germany).
as §1, with “CDK2/CycE” for “CDK9/CycT1”, “about 10 ng/ml.” for “in the range of 0.5 μg/ml.”, “(0.333” for “(0.33”, “AD0077, as an alternative a Terbium-cryptate-labeled anti-mouse IgG antibody from Cisbio Bioassays can be used])” for “AD0077])”
as §2

A2780 cells = assay: Proliferation assay, A2780; type: cell-based, human; settings: 72-hour exposure, Cell Titre-Glo, read-out: Inhibition of A2780 cell proliferation IC50
Method: Cultivated tumour cells (HeLa, human cervical tumour cells, ATCC CCL-2; NCI-H460, human non-small cell lung carcinoma cells, ATCC HTB-177; DU 145, hormone-independent human prostate carcinoma cells, ATCC HTB-81; HeLa-MaTu-ADR, multidrug-resistant human cervical carcinoma cells, EPO-GmbH Berlin; Caco-2, human colorectal carcinoma cells, ATCC HTB-37; B16F10, mouse melanoma cells, ATCC CRL-6475) were plated at a density of 5,000 cells/well (DU145, HeLa-MaTu-ADR), 3,000 cells/well (NCI-H460, HeLa), 1,500 cells/well (Caco-2), or 1,000 cells/well (B16F10) in a 96-well multititer plate in 200 μL of their respective growth medium supplemented 10% fetal calf serum. After 24 hours, the cells of one plate (zero-point plate) were stained with crystal violet (see below), while the medium of the other plates was supplemented with the test substances in various concentrations (0 μM, as well as in the range of 0.0001-10 μM; the final concentration of the solvent dimethyl sulfoxide was adjusted to 0.1%) using a Hewlett-Packard HP D300 Digital Dispenser. The cells were incubated for 4 days in the presence of test substances. Cell proliferation was determined by staining the cells with crystal violet: the cells were fixed by adding 20 μl/measuring point of an 11% glutaric aldehyde solution for 15 minutes at room temperature. After three washing cycles of the fixed cells with water, the plates were dried at room temperature. The cells were stained by adding 100 μl/measuring point of a 0.1% crystal violet solution (pH 3.0). After three washing cycles of the stained cells with water, the plates were dried at room temperature. The dye was dissolved by adding 100 μl/measuring point of a 10% acetic acid solution. The extinction was determined by photometry at a wavelength of 595 nm. The change of cell number, in percent, was calculated by normalization of the measured values to the extinction values of the zero-point plate (=0%) and the extinction of the untreated ([…]) cells (=100%). The IC50 values (inhibitory concentration at 50% of maximal effect) were determined by means of a 4 parameter fit. A2780 human ovarian carcinoma cells (ECACC #93112519) and non-adherent MOLM-13 human acute myeloid leukemia cells (DSMZ ACC 554) were seeded at a density of 3,000 cell/well (A2780) or 5,000 cells/well (MOLM-13) in a 96-well multititer plate in 150 μL of growth medium supplemented 10% fetal calf serum. After 24 hours, cell viability of one plate (zero-point plate) was determined with the Cell Titre-Glo Luminescent Cell Viability Assay (Promega), while the medium of the other plates was supplemented with the test substances in various concentrations (0 μM, as well as in the range of 0.0001-10 μM; the final concentration of the solvent dimethyl sulfoxide was adjusted to 0.1%) using a Hewlett-Packard HP D300 Digital Dispenser. Cell viability was assessed after 72-hour exposure with the Cell Titre-Glo Luminescent Cell Viability Assay (Promega). IC50 values (inhibitory concentration at 50% of maximal effect) were determined by means of a 4 parameter fit on measurement data which were normalized to vehicle (DMSO) treated cells (=100%) and measurement readings taken immediately before compound exposure (=0%).

| IC50 (CDK9/CycT1) [nM] | Selectivity high ATP CDK9 over high ATP CDK2: IC50 (high ATP CDK2)/IC50 (high ATP CDK9) (CDK9/CycT1) | IC50 (CDK2/CycE) [nM] | IC50 (A2780 cells; Homo sapiens, A2780, 72 h) [nM] | IC50 (A2780 cells) [nM] | Compound |
| --- | --- | --- | --- | --- | --- |
| 7 | 667 | 4670 | 346 |  | CSCc1cc2nc(c1)OC(C)CCCOc1cc(ccc1F)-c1cc(ncc1F)N2 (racemic) [Example 11, (rac)-3,20-difluoro-14-methyl-10-[(methylsulfanyl)methyl]-13,18-dioxa-5,7,24-triazatetracyclo[17.3.1.1^2,6.1^8,12]pentacosa-1(23),2(25),3,5,8(24),9,11,19,21-nonaene] |
| 4 | 3250 | 13000 | 53 |  | CC1CCCCCOc2cc(ccc2F)-c2cc(ncc2F)Nc2cc(CS(C)(=N)=O)cc(n2)O1 (single isomer, unassigned) [Example 26, 3,22-difluoro-14-methyl-10-[(S-methylsulfonimidoyl)methyl]-13,20-dioxa-5,7,26-triazatetracyclo[19.3.1.1^2,6.1^8,12]heptacosa-1(25),2(27),3,5,8(26),9,11,21,23-nonaene] |

More lines, now with the values behind:

| Compound | IC50 (CDK9/CycT1) [nM] | Selectivity high ATP CDK9 over high ATP CDK2: IC50 (high ATP CDK2)/IC50 (high ATP CDK9) (CDK9/CycT1) | IC50 (CDK2/CycE) [nM] | IC50 (A2780 cells; Homo sapiens, A2780, 72 h) [nM] | IC50 (A2780 cells) [nM] |
| --- | --- | --- | --- | --- | --- |
| CC1CCCOc2cc(ccc2F)-c2cc(ncc2F)Nc2cc(CS(C)(=N)=O)cc(n2)O1 (single isomer, unassigned) [Example 14, 3,20-difluoro-14-methyl-10-[(S-methylsulfonimidoyl)methyl]-13,18-dioxa-5,7,24-triazatetracyclo[17.3.1.1^2,6.1^8,12]pentacosa-1(23),2(25),3,5,8(24),9,11,19,21-nonaene] | 3 | 503 | 1510 |  | 23 |
| CC1CCCOc2cc(ccc2F)-c2cc(ncc2F)Nc2cc(CS(C)(=N)=O)cc(n2)O1 (single isomer, unassigned) [Example 15, 3,20-difluoro-14-methyl-10-[(S-methylsulfonimidoyl)methyl]-13,18-dioxa-5,7,24-triazatetracyclo[17.3.1.1^2,6.1^8,12]pentacosa-1(23),2(25),3,5,8(24),9,11,19,21-nonaene] | 3 | 540 | 1620 |  | 16 |
| CC1CCCCCOc2cc(ccc2F)-c2cc(ncc2F)Nc2cc(CS(C)(=N)=O)cc(n2)O1 (single isomer, unassigned) [Example 27, 3,22-difluoro-14-methyl-10-[(S-methylsulfonimidoyl)methyl]-13,20-dioxa-5,7,26-triazatetracyclo[19.3.1.1^2,6.1^8,12]heptacosa-1(25),2(27),3,5,8(26),9,11,21,23-nonaene] | 5 | 544 | 2720 |  | 102 |
| CC1CCCCOc2cc(ccc2F)-c2cc(ncc2F)Nc2cc(CS(C)(=O)=O)cc(n2)O1 (single isomer, unassigned) [Example 29, 3,21-difluoro-14-methyl-10-[(methylsulfonyl)methyl]-13,19-dioxa-5,7,25-triazatetracyclo[18.3.1.1^2,6.1^8,12]hexacosa-1(24),2(26),3,5,8(25),9,11,20,22-nonaene] | 4 | 173 | 691 |  | 25 |
| CC1CCCCOc2cc(ccc2F)-c2cc(ncc2F)Nc2cc(CS(C)(=O)=O)cc(n2)O1 (single isomer, unassigned) [Example 30, 3,21-difluoro-14-methyl-10-[(methylsulfonyl)methyl]-13,19-dioxa-5,7,25-triazatetracyclo[18.3.1.1^2,6.1^8,12]hexacosa-1(24),2(26),3,5,8(25),9,11,20,22-nonaene] | 3 | 1196 | 3590 |  | 55 |
